A short description of one data set: Cytotoxicity MTT assay. To be noted: human, BJ cells (normal human skin fibroblasts), read-out: CC50 (concentration required for a 50 % reduction of cell viability). It counts as cell-based. How it is done:
(§1) Normal human skin fibroblasts (BJ), human hepatocellular carcinoma (HepG2) and human breast adenocarcinoma (MCF-7) were obtained from American Type Culture Collection (ATCC, England, UK). The cells were cultured in Eagle’s minimum essential medium (EMEM, ATCC) supplemented with 10 % fetal bovine serum (FBS, PAA Laboratories), 100 U/mL penicillin and 100 μg/mL streptomycin (Sigma-Aldrich). In the case of the MCF-7 cell line, the culture medium was additionally supplemented with 0.01 μg/mL of human recombinant insulin (Sigma-Aldrich). The cells were grown in 75-cm^2 flasks and maintained at 37 °C in a humidified atmosphere of 5 % CO2 and 95 % air.
In order to determine the cytotoxicity, BJ cells were seeded in flat-bottom 96-well plates in 100 μL of a complete growth medium at a concentration of 1.7 × 10^4 cells/well and incubated for 24 h at 37 °C in a humidified atmosphere of 5 % CO2. Immediately before drug treatment, the synthesized compounds (1, 2, 4, 5, 6, 7, 10) were dissolved in dimethyl sulfoxide (DMSO, Sigma-Aldrich) and then diluted in cell culture medium supplemented with 2 % FBS. […] After incubation, the growth medium was replaced with 100 μL of the appropriate serial dilutions of the investigated compounds. Untreated cells were used as negative controls, and different concentrations of DMSO were used as the solvent control. The cell cultures were incubated at 37 °C for 24 h. The cytotoxicity was estimated using the 3-(4,5-dimethylthiazol-2-yl)-2,5-diphenyltetrazolium bromide (MTT) assay as described by Mosmann with some modifications (Mosmann, [1983]). Briefly, the cells were incubated for 3 h with 25 μL of MTT solution ([…] in PBS buffer) per well. The MTT assay is a rapid colorimetric method based on the conversion of mitochondrial succinate dehydrogenase from yellow, soluble tetrazolium salt to blue formazan crystals to determine the number of viable cells. In order to dissolve formazan crystals in live cells, 100 μL of SDS-HCl solution (10 % SDS in 0.01 N HCl) was added per well. After overnight incubation, absorbance was measured at 570 nm using microplate reader (BioTek ELx50). The MTT assay was repeated in three independent experiments performed in octuplicates. The half-maximal cytotoxic concentration (CC50) was defined as the compound concentration (μg/mL) required to reduce cell viability to 50 %. Therapeutic index (TI) is a widely accepted parameter to represent the specificity of antibacterial agents for human (Begg et al., [1999]). In this study, the in vitro TI values were calculated as the ratio of CC50 (cytotoxic activity) and MIC (antibacterial activity); thus, greater values of in vitro therapeutic index indicate safer specificity for eukaryotic cells.
The data were analyzed using one-way ANOVA test followed by Dunnett’s test. Differences were considered as significant with p < 0.01 (GraphPad Prism 5, Version 5.04 Software). The values of CC50 and IC50 were calculated via 4-parameter nonlinear regression analyses using GraphPad Prism 5, version 5.04.
A general note: Formazan colour is commonly taken as a measure of viable cells.

Data set [1] deals with aerobic Gram-positive bacteria. The experiment in a line: Broth microdilution MIC, summary in text. It is filed as cell-based. To be noted: range over compounds and strains; read-out: MIC against aerobic Gram-positive bacteria. An excerpt: (§2) Panel reference strains of bacteria from the American Type Culture Collection or Polish Collection of Microorganisms, including aerobic Gram-positive bacteria: Staphylococcus aureus ATCC 25923 and Staphylococcus epidermidis ATCC 12228, and aerobic Gram-negative bacteria: Escherichia coli ATCC 25922 and Pseudomonas aeruginosa ATCC 9027, as well as microaerobic Gram-positive bacteria: Lactobacillus spp., Lactobacillus acidophilus PCM 2105, Streptococcus mutans PCM 2502 and Streptococcus sanguinis PCM 2335, were used. Microbial suspensions with an optical density of 0.5 McFarland standard at 1.5 × 10^8 CFU/mL (CFU: colony forming unit) were prepared in sterile 0.9 % NaCl. Mueller–Hinton (M–H) broth and M–H agar (Oxoid Ltd., England) for aerobic strains, and MRS Broth Lactobacillus, MRS Agar Lactobacillus (BioMaxima S.A., Poland), BHI Broth and BHI agar (BioMaxima S.A., Poland) for microaerobic strains were used in the microbial tests.
(§3) A broth microdilution method was used to evaluate the minimum inhibition concentration (MIC) according to the CLSI document (CLSI performance standards for antimicrobial susceptibility testing, 2008, Eighteenth International Supplement, CLSI document M7-MIC, Clinical Laboratory Standards Institute, Wayne) with some modifications. […] A serial doubling dilution of the compounds was prepared in 96-well plates (200 μL per well). A suitable medium (M-H Broth, MRS Broth Lactobacillus, BHI Broth) was used as a diluent. The final concentrations of derivatives were 1000–0.015 μg/mL. Finally, 2 μL of inoculum of the tested bacterial strain (1.5 × 10^8 CFU/mL) was added to each well. The tests were performed either at 36 °C for 18 h (aerobic strains) or at 40 h (microaerobic strains). After incubation, the panel was digitally analyzed at 600 nm using the microplate reader Bio Tech Synergy (USA) with a dedicated software system. The growth intensity in each well was compared with the negative and positive controls.
For orientation: Dilution methods test growth across graded concentrations, often in twofold steps.

Data set [2] concerns MCF-7 (human breast adenocarcinoma). The experiment in a line: Cell proliferation MTT assay. To be noted: MCF7, 96 h, read-out: IC50, antiproliferative activity, MCF-7. It is filed as cell-based. How it is done: as §1
In order to evaluate cell proliferation, the cells were seeded in flat-bottom 96-well plates in 100 μL of a complete growth medium at a concentration of 2 × 10^3 cells/well (BJ), 1.5 × 10^4 cells/well (HepG2) and 2.5 × 10^4 cells/well (MCF-7) and incubated for 24 h at 37 °C in a humidified atmosphere of 5 % CO2. Before drug exposure, the synthesized compounds (1–10) were dissolved in DMSO and then diluted in a complete culture medium supplemented with 10 % FBS. Subsequently, the growth medium was gently removed and the cells were exposed to 100 μL of serial dilutions of the investigated compounds at concentrations ranging from 0.05 to 200 μg/mL. Untreated cells were used as negative controls, and different concentrations of DMSO were used as the solvent control. After 96-h incubation at 37 °C in a humidified atmosphere of 5 % CO2, cell proliferation was assessed using the MTT test as described previously (Cytotoxicity assay). The MTT assay was repeated in three independent experiments in quadruplicates. The half-maximal inhibitory concentration (IC50) was defined as the compound concentration (μg/mL) required to inhibit cell proliferation to 50 %.
The results of the in vitro cell culture experiments were presented as mean values ± standard deviation (SD) or as mean values ± standard error of the mean (SEM). The data were analyzed using one-way ANOVA test followed by Dunnett’s test. Differences were considered as significant with p < 0.01 (GraphPad Prism 5, Version 5.04 Software). The values of CC50 and IC50 were calculated via 4-parameter nonlinear regression analyses using GraphPad Prism 5, version 5.04.

Data set [3] relates to pathogenic microaerobic bacteria (causing dental caries). Briefly: Broth microdilution MIC, summary in text. It is filed as cell-based. To be noted: range over compounds and strains; read-out: MIC against pathogenic microaerobic bacteria.
From the text: as §2, §3

Values after ≈ are worked out from the molar mass of the structure shown. Read-outs that look alike come from different tables or passages of the source.

One may read the MIC as the smallest concentration in the dilution series that meets the test's criterion for growth inhibition. As a reminder, the melting point is the temperature of the solid-liquid transition. Consider `CSc1ccc(NC(=S)NNC(=O)c2cccnc2)cc1` [Compound 6, 4-(4-Methylthiophenyl)-1-(pyridin-3-yl)carbonylthiosemicarbazide], for which the melting point was 176 to 177 °C. The CC50 at 24 h in the data set “Cytotoxicity MTT assay” worked out at 917 µg/mL (≈ 2880 µM). Also, in data set [1], the MIC was 15.6 to 500 µg/mL.

`CCOc1ccc2nc3cc(N)ccc3c(N)c2c1` [Ethacridine lactate, ethacridine lactate, reference compound]: in the data set “Cytotoxicity MTT assay”, the CC50 at 24 h amounted to 6.88 µg/mL.

In the case of `[H]/N=C(\N/C(=N/[H])NCCCCCCNC(=N)NC(=N)Nc1ccc(Cl)cc1)Nc1ccc(Cl)cc1` [CLX, chlorhexidine digluconate, reference compound], the CC50 at 24 h in “Cytotoxicity MTT assay” worked out at 8.46 µg/mL.

Take `O=C(NNC(=S)Nc1ccc(Cl)cc1Cl)c1cccnc1` [Compound 7, 4-(2,4-Dichlorophenyl)-1-(pyridin-3-yl)carbonylthiosemicarbazide]: the melting point lay in the range of 196 to 197 °C. For the same compound, the CC50 at 24 h in “Cytotoxicity MTT assay” is 88.3 µg/mL (≈ 259 µM).

One may read the IC50 as the concentration at which inhibition is half-maximal. `O=C(NNC(=S)Nc1ccc(Cl)cc1Cl)c1ccccn1` [Compound 4, 4-(2,4-Dichlorophenyl)-1-(pyridin-2-yl)carbonylthiosemicarbazide] showed a melting point of 158 to 160 °C. The CC50 at 24 h in “Cytotoxicity MTT assay” came to 19.5 µg/mL (≈ 57.1 µM). The IC50 in data set [2] (mean ± SD) was 8.63 µg/mL. The 50% inhibitory concentration (IC50) in data set [2] (same value in µM) was 25.3 µM. The MIC in data set [1] was in the range of 15.6 to 500 µg/mL. For the same compound, the MIC in data set [3] is 7.81 to 500 µg/mL.

As for `O=C(NNC(=S)Nc1ccccc1Cl)c1ccccn1` [Compound 2, 4-(2-Chlorophenyl)-1-(pyridin-2-yl)carbonylthiosemicarbazide], the melting point is 172 to 174 °C. In addition, the IC50 in data set [2] (mean ± SD) was determined as 14.8 ± 1.03 µg/mL. Also, in data set [1], the minimal inhibitory concentration (MIC) is 15.6 to 500 µg/mL. Further, the minimum inhibitory concentration (MIC) in data set [3] lay within 7.81 to 500 µg/mL.

The values are drawn from PMC4958397, “Synthesis, antibacterial and antiproliferative potential of some new 1-pyridinecarbonyl-4-substituted thiosemicarbazide derivatives” (Medicinal Chemistry Research, 2016).
